{
  "source": "patent US20230346961A1",
  "about": "“GLP-1 AND GIP RECEPTOR CO-AGONISTS” (Novo Nordisk A/S, priority 2020, published 2023)",
  "key": {"human GLP-1 receptor": {"target": "human GLP-1 receptor (Homo sapiens, UniProt P43220)", "sequence (P43220 24-463)": "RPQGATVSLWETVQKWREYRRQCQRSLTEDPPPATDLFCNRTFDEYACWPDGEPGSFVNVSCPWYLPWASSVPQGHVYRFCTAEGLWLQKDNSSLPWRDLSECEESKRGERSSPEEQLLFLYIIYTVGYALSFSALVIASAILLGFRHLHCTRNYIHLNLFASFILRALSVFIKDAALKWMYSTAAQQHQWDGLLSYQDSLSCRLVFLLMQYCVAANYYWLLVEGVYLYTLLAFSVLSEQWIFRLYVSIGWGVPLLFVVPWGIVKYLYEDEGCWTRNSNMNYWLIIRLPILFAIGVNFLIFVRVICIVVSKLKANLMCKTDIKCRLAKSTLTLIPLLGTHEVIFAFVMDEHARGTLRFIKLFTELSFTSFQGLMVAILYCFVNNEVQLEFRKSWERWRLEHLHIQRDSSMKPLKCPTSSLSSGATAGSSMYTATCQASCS", "assay": "cell-based", "conditions": "hGLP-1R"}, "[1]": {"assay": "Pharmacokinetic study in minipigs (terminal half-life after i.v. administration)", "assay_type": "in vivo", "conditions": "female, Göttingen, minipig, in vivo, iv; minipigs, i.v. administration, harmonic mean; read-out: Terminal half-life t1/2 (converted)", "protocol": "The purpose of this example is to determine the half-life in vivo of the derivatives of the present invention after i.v. administration to minipigs, i.e. the prolongation of their time in the body and thereby their time of action. This is done in a pharmacokinetic (PK) study, where the terminal half-life of the derivative in question is determined. By terminal half-life is generally meant the period of time it takes to […] certain plasma concentration, measured after the initial distribution phase. Female Göttingen minipigs were obtained from Ellegaard Göttingen Minipigs (Dalmose, Denmark) approximately 7-14 months of age and weighing from approximately 16-35 kg were used in the studies. The minipigs were housed individually and fed restrictedly once daily with SDS minipig diet (Special Diets Services, Essex, UK). After at 3 weeks of acclimatisation two permanent central venous catheters were implanted in vena cava caudalis in each animal. The animals were allowed 1 week recovery after the surgery, and were then used for repeated pharmacokinetic studies with a suitable wash-out period between successive derivative dosing. The animals were fasted for approximately 18 hours before dosing and from 0 to 4 hours after dosing, but had adlibitum access to water during the whole period. […] Blood samples (for example 0.8 mL) were collected in 8 mM EDTA buffer and then centrifuged at 4° C. and 1942 g for 10 minutes. Plasma was pipetted into Micronic tubes on dry ice and kept at -20° C. until analysed for plasma concentration of the compounds using ELISA, or a similar antibody-based assay, or LCMS. […] (Pharsight Inc., Mountain View, CA, USA), and the resulting terminal half-lives (harmonic mean) determined."}, "human glucagon receptor": {"target": "human glucagon receptor (Homo sapiens, UniProt P47871)", "sequence (P47871 26-477)": "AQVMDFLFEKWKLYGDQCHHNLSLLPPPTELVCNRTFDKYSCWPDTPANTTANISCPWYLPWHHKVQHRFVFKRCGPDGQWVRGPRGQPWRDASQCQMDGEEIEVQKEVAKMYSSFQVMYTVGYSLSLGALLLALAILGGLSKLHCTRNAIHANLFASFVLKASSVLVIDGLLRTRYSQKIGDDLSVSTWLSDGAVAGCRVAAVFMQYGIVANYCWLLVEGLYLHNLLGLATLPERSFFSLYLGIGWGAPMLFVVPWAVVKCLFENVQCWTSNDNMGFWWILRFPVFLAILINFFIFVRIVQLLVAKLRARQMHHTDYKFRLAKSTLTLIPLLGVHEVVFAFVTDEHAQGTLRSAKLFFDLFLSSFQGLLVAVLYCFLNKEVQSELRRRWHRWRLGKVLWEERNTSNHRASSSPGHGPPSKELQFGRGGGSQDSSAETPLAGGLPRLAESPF", "assay": "cell-based"}, "mouse GIP receptor": {"target": "T1, mouse GIP receptor (Mus musculus, UniProt Q0P543)", "T1 sequence (Q0P543 19-460)": "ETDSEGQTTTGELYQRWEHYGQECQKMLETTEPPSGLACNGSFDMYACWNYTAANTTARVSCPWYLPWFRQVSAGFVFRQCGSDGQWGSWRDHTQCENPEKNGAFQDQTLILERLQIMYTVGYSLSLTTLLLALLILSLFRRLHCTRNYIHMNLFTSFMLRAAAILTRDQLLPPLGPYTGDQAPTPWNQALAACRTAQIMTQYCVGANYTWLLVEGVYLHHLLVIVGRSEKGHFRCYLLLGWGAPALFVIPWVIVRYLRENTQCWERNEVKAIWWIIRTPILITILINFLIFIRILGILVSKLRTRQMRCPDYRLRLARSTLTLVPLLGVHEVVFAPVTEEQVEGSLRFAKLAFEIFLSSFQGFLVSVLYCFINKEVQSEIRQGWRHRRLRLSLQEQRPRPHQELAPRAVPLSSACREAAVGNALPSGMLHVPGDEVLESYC", "assay": "cell-based", "procedure": "The in vitro functional potency is the measure of target receptor activation in a whole cell assay.\nIn vitro functional potency was determined by measuring the response of the target receptor in a reporter gene assay in individual cell lines. […] When the respective receptor is activated, it results in the production of cAMP, which in turn results in expression of the luciferase protein. When assay incubation is completed, luciferase substrate (luciferin) is added resulting in the enzymatic conversion of luciferin to oxyluciferin and producing bioluminescence. The luminescence is measured as the readout for the assay.\nThe cells lines used in these assays were BHK cells with BHKTS13 as a parent cell line. The cell lines were derived from a clone containing the CRE luciferase element and were established by further transfection with the respective receptor to obtain the relevant cell line.\nThe cells were cultured at 37° C. with 5% CO2 in Cell Culture Medium. They were aliquoted and stored in liquid nitrogen. The cells were kept in continuous culture and were seeded out the day before each assay.\nGLP-1R and GcgR Cell Culture Medium consisted of DMEM medium with 10% FBS, 500 μg/mL G418, and 300 μg/mL hygromycin. GIPR Cell Culture Medium consisted of DMEM medium with 10% FBS, 400 μg/mL G418, and 300 μg/mL hygromycin. Assay Buffer consisted of DMEM w/o phenol red, 10 mM Hepes, 1×Glutamax, 1% ovalbumin, and 0.1% Pluronic F-68 with the addition of HSA at twice the final assay concentration.\n• 1) Cells were plated at 5000 cells/well and incubated overnight in the assay plate. • 2) Cells were washed once in DPBS. • 3) Stocks of the test compounds and reference compounds in concentrations ranging from 100-300 μM were diluted 1:150 in Assay Buffer. Compounds were then diluted 1:10 in column 1 of a 96 deep well dilution plate and then carried across the row creating a 3.5 fold, 12 point dilution curve. • 4) Assay Buffer (50 μl aliquot) with or without HSA was added to each well in the assay plate. • 5) A 50 μl aliquot of compound or blank was transferred from the dilution plate to the assay plate containing the Assay Buffer with or without HSA. • 6) The assay plate was incubated for 3 h in a 5% CO2 incubator at 37° C. 7) The cells were washed once with DPBS. • 8) A 100 μl aliquot of DPBS was added to each well of the assay plate. • 9) A 100 μl aliquot of steadylite plus reagent (light sensitive) was added to each well of the assay plate. • 10) Each assay plate was covered with aluminum foil to protect it from light and shaken at 250 RPM for 30 min at room temperature. • 11) Each assay plate was read in a microtiter plate reader.\nThe data from the microtiter plate reader was first regressed in an Excel in order to calculate the x-axis, log scale concentrations based on the individual test compound's stock concentration and the dilutions of the assay. […] The software performs a non-linear regression (log(agonist) vs response). A minimum of two replicates was measured for each sample. The reported values are averages of the replicates."}, "mouse GLP-1 receptor": {"target": "T2, mouse GLP-1 receptor (Mus musculus, UniProt O35659)", "T2 sequence (O35659 22-463)": "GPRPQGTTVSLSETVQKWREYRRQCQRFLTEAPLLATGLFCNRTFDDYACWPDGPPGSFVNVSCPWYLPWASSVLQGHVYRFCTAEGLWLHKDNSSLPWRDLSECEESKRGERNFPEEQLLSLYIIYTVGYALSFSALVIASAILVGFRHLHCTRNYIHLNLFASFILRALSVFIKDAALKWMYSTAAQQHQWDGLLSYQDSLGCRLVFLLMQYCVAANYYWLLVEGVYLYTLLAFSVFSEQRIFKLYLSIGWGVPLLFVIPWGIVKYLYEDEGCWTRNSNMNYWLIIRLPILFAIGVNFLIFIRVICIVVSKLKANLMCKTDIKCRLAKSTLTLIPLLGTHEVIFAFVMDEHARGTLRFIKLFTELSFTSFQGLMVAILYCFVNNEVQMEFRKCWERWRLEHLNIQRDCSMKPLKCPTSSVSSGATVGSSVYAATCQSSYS"}},
  "note": "Starred links: 1 amine or outer side, 2 acyl side, 3 side chain; linkers in the order of their positions; H or OH if unused. Non-standard residues stand in square brackets, D forms with d. Residues, ends and D or L forms follow the SMILES beside them. Groups on a side chain read outwards from the residue. *: point of attachment. C20 diacid = O=C(O)CCCCCCCCCCCCCCCCCCC(=O)*; γGlu = O=C(O)[C@H](CCC(=O)[*:2])N[*:1]; εLys = N[C@@H](CCCCN[*:1])C(=O)[*:2]; Trx = NC[C@H]1CC[C@H](C(=O)O)CC1; Aib = CC(C)(N)C(=O)O",
  "data": [
    {"smiles": "CC[C@H](C)[C@H](NC(=O)[C@H](CO)NC(=O)[C@H](Cc1ccc(O)cc1)NC(=O)[C@H](CC(=O)O)NC(=O)[C@H](CO)NC(=O)[C@@H](NC(=O)[C@H](Cc1ccccc1)NC(=O)[C@@H](NC(=O)CNC(=O)[C@H](CCC(=O)O)NC(=O)C(C)(C)NC(=O)[C@@H](N)Cc1ccc(O)cc1)[C@@H](C)O)[C@@H](C)O)C(=O)N[C@@H](Cc1ccc(O)cc1)C(=O)N[C@@H](CC(C)C)C(=O)N[C@@H](CCC(=O)O)C(=O)N[C@@H](CCC(=O)O)C(=O)N[C@@H](CCC(N)=O)C(=O)N[C@@H](C)C(=O)N[C@@H](C)C(=O)NC(C)(C)C(=O)N[C@@H](CCCCNC(=O)[C@@H](N)CCCCNC(=O)[C@@H](N)CCCCNC(=O)CC[C@H](NC(=O)[C@H]1CC[C@H](CNC(=O)CCCCCCCCCCCCCCCCCCC(=O)O)CC1)C(=O)O)C(=O)N[C@@H](Cc1ccccc1)C(=O)N[C@H](C(=O)N[C@@H](CC(N)=O)C(=O)N[C@@H](Cc1c[nH]c2ccccc12)C(=O)N[C@@H](CC(C)C)C(=O)N[C@@H](CC(C)C)C(=O)N[C@@H](C)C(=O)NCC(=O)NCC(=O)N1CCC[C@H]1C(=O)N[C@@H](CO)C(=O)N[C@@H](CO)C(=O)NCC(=O)N[C@@H](C)C(=O)N1CCC[C@H]1C(=O)N1CCC[C@H]1C(=O)N1CCC[C@H]1C(=O)N[C@@H](CO)C(N)=O)C(C)C", "note": "[Compound 19] (H-Y[Aib]EGTFTSDYSIYLEEQAA[Aib]K([εLys-εLys-γGlu-Trx-C20 diacid])FVNWLLAGGPSSGAPPPS-NH2; N-terminus assumed)", "values": [
      {"measurement": "EC50", "setting": "human GLP-1 receptor; CRE Luc 0% HSA EC50, 0% HSA", "result": 0.0046, "unit": "nM"},
      {"measurement": "EC50", "setting": "human GLP-1 receptor; CRE Luc 1% HSA EC50, 1% HSA", "result": 0.297, "unit": "nM"},
      {"measurement": "half-life", "setting": "[1]", "result": 112, "unit": "h"},
      {"measurement": "EC50", "setting": "human glucagon receptor", "result": "> 10", "unit": "nM"},
      {"measurement": "EC50", "setting": "mouse GIP receptor", "result": 0.134, "unit": "nM"},
      {"measurement": "EC50", "setting": "mouse GLP-1 receptor", "result": 0.0055, "unit": "nM"}
    ]},
    {"smiles": "CC[C@H](C)[C@H](NC(=O)[C@H](CO)NC(=O)[C@H](Cc1ccc(O)cc1)NC(=O)[C@H](CC(=O)O)NC(=O)[C@H](CO)NC(=O)[C@@H](NC(=O)[C@H](Cc1ccccc1)NC(=O)[C@@H](NC(=O)CNC(=O)[C@H](CCC(=O)O)NC(=O)C(C)(C)NC(=O)[C@@H](N)Cc1ccc(O)cc1)[C@@H](C)O)[C@@H](C)O)C(=O)N[C@@H](Cc1ccc(O)cc1)C(=O)N[C@@H](CC(C)C)C(=O)N[C@@H](CCC(=O)O)C(=O)N[C@@H](CCCCNC(=O)[C@@H](N)CCCCNC(=O)[C@@H](N)CCCCNC(=O)CC[C@H](NC(=O)[C@H]1CC[C@H](CNC(=O)CCCCCCCCCCCCCCCCCCC(=O)O)CC1)C(=O)O)C(=O)N[C@@H](CCC(N)=O)C(=O)N[C@@H](C)C(=O)N[C@@H](C)C(=O)NC(C)(C)C(=O)N[C@@H](CCC(=O)O)C(=O)N[C@@H](Cc1ccccc1)C(=O)N[C@H](C(=O)N[C@@H](CC(N)=O)C(=O)N[C@@H](Cc1c[nH]c2ccccc12)C(=O)N[C@@H](CC(C)C)C(=O)N[C@@H](CC(C)C)C(=O)N[C@@H](C)C(=O)NCC(=O)NCC(=O)N1CCC[C@H]1C(=O)N[C@@H](CO)C(=O)N[C@@H](CO)C(=O)NCC(=O)N[C@@H](C)C(=O)N1CCC[C@H]1C(=O)N1CCC[C@H]1C(=O)N1CCC[C@H]1C(=O)N[C@@H](CO)C(N)=O)C(C)C", "note": "[Compound 20] (H-Y[Aib]EGTFTSDYSIYLEK([εLys-εLys-γGlu-Trx-C20 diacid])QAA[Aib]EFVNWLLAGGPSSGAPPPS-NH2; N-terminus assumed)", "values": [
      {"measurement": "EC50", "setting": "human GLP-1 receptor; CRE Luc 0% HSA EC50, 0% HSA", "result": 0.0033, "unit": "nM"},
      {"measurement": "EC50", "setting": "human GLP-1 receptor; CRE Luc 1% HSA EC50, 1% HSA", "result": 0.261, "unit": "nM"},
      {"measurement": "half-life", "setting": "[1]", "result": 88, "unit": "h"},
      {"measurement": "EC50", "setting": "human glucagon receptor", "result": "> 10", "unit": "nM"},
      {"measurement": "EC50", "setting": "mouse GIP receptor", "result": 0.012, "unit": "nM"},
      {"measurement": "EC50", "setting": "mouse GLP-1 receptor", "result": 0.0026, "unit": "nM"}
    ]}
  ]
}
